Test results: ChEMBL document CHEMBL3885861, “Open TG-GATES”

Species: Rattus norvegicus
Experiment: Open TG-GATES - Regimen: Single
Format: toxicity, organism-based, Sprague-Dawley
Set-up: regimen Single, gender Male, age 6 weeks
Details: in vivo, po, 3 mg/kg, route gavage, dose level Low; for APTT / Bas / Eos / Fbg / Hb / Ht / Lym / MCH / MCHC / MCV / Mono / Neu / PT / Plat / RBC / Ret / WBC: tissue Blood; for KIDNEY_L / KIDNEY_R / KIDNEY_TOTAL: tissue Kidney; for LIVER: tissue Liver; for A/G / ALP / ALT / AST / BUN / CRE / Ca / Cl / DBIL / GLC / IP / K / LDH / Na / PL / RALB / TBIL / TC / TG / TP / gamma-GTP: tissue Plasma

Cn1cnc([N+](=O)[O-])c1Sc1ncnc2nc[nH]c12 [AZATHIOPRINE]
TERMINAL_BW (3 h): 191 g
APTT (3 h): 23.4 s
Bas (3 h): 0%
Eos (3 h): 1%
Fbg (3 h): 295.8 mg/dL
Hb (3 h): 13.4 g/dL
Ht (3 h): 40.1%
Lym (3 h): 77.8%
MCH (3 h): 21.6 pg
MCHC (3 h): 33.4%
MCV (3 h): 64.6 fL
Mono (3 h): 1.8%
Neu (3 h): 18.2%
PT (3 h): 15.8 s
Plat (3 h): 115.7 x10_4/uL
RBC (3 h): 621.4 x10_4/ul
Ret (3 h): 9.1%
WBC (3 h): 67.9 x10_2/uL
KIDNEY_L (3 h): 0.8 g
KIDNEY_R (3 h): 0.9 g
KIDNEY_TOTAL (3 h): 1.7 g
LIVER (3 h): 8.6 g
A/G (3 h): 1.2
ALP (3 h): 1535.2 IU/L
ALT (3 h): 41.6 IU/L
AST (3 h): 73.4 IU/L
BUN (3 h): 13.2 mg/dL
CRE (3 h): 0.1 mg/dL
Ca (3 h): 10.6 mg/dL
Cl (3 h): 106.8 meq/L
DBIL (3 h): 0.002 mg/dL
GLC (3 h): 190.2 mg/dL
IP (3 h): 8.1 mg/dL
K (3 h): 4.2 meq/L
LDH (3 h): 273.6 IU/L
Na (3 h): 142.8 meq/L
PL (3 h): 139.2 mg/dL
RALB (3 h): 3 g/dL
TBIL (3 h): 0.004 mg/dL
TC (3 h): 75.4 mg/dL
TG (3 h): 68 mg/dL
TP (3 h): 5.5 g/dL
gamma-GTP (3 h): 1 IU/L
TERMINAL_BW (6 h): 185.7 g
APTT (6 h): 21.8 s
Bas (6 h): 0%
Eos (6 h): 0.8%
Fbg (6 h): 324.4 mg/dL
Hb (6 h): 13.1 g/dL
Ht (6 h): 39%
Lym (6 h): 69.2%
MCH (6 h): 22.3 pg
MCHC (6 h): 33.6%
MCV (6 h): 66.3 fL
Mono (6 h): 2.2%
Neu (6 h): 26.2%
PT (6 h): 15.7 s
Plat (6 h): 130.1 x10_4/uL
RBC (6 h): 589.2 x10_4/ul
Ret (6 h): 9.5%
WBC (6 h): 95.2 x10_2/uL
KIDNEY_L (6 h): 0.8 g
KIDNEY_R (6 h): 0.8 g
KIDNEY_TOTAL (6 h): 1.7 g
LIVER (6 h): 8.1 g
A/G (6 h): 1.2
ALP (6 h): 1674.4 IU/L
ALT (6 h): 43.2 IU/L
AST (6 h): 75 IU/L
BUN (6 h): 9.4 mg/dL
CRE (6 h): 0.1 mg/dL
Ca (6 h): 10.5 mg/dL
Cl (6 h): 106.8 meq/L
DBIL (6 h): 0.002 mg/dL
GLC (6 h): 182.4 mg/dL
IP (6 h): 8.8 mg/dL
K (6 h): 4.2 meq/L
LDH (6 h): 288.6 IU/L
Na (6 h): 142.2 meq/L
PL (6 h): 135.8 mg/dL
RALB (6 h): 3 g/dL
TBIL (6 h): 0.008 mg/dL
TC (6 h): 78.8 mg/dL
TG (6 h): 48.4 mg/dL
TP (6 h): 5.5 g/dL
gamma-GTP (6 h): 1 IU/L
TERMINAL_BW (9 h): 186.8 g
APTT (9 h): 22.5 s
Bas (9 h): 0%
Eos (9 h): 1%
Fbg (9 h): 311.8 mg/dL
Hb (9 h): 13 g/dL
Ht (9 h): 38.7%
Lym (9 h): 74%
MCH (9 h): 21.2 pg
MCHC (9 h): 33.5%
MCV (9 h): 63.4 fL
Mono (9 h): 2.4%
Neu (9 h): 20.6%
PT (9 h): 15.3 s
Plat (9 h): 125.3 x10_4/uL
RBC (9 h): 611 x10_4/ul
Ret (9 h): 9.3%
WBC (9 h): 83.5 x10_2/uL
KIDNEY_L (9 h): 0.9 g
KIDNEY_R (9 h): 0.9 g
KIDNEY_TOTAL (9 h): 1.7 g
LIVER (9 h): 7.5 g
A/G (9 h): 1.2
ALP (9 h): 1456.2 IU/L
ALT (9 h): 38.4 IU/L
AST (9 h): 70.4 IU/L
BUN (9 h): 10.6 mg/dL
CRE (9 h): 0.1 mg/dL
Ca (9 h): 10.5 mg/dL
Cl (9 h): 107 meq/L
DBIL (9 h): 0 mg/dL
GLC (9 h): 183.4 mg/dL
IP (9 h): 9.3 mg/dL
K (9 h): 4.2 meq/L
LDH (9 h): 234.2 IU/L
Na (9 h): 141.6 meq/L
PL (9 h): 140.8 mg/dL
RALB (9 h): 2.9 g/dL
TBIL (9 h): 0.016 mg/dL
TC (9 h): 83.4 mg/dL
TG (9 h): 51.8 mg/dL
TP (9 h): 5.4 g/dL
gamma-GTP (9 h): 1 IU/L
TERMINAL_BW (24 h): 202.9 g
APTT (24 h): 21.3 s
Bas (24 h): 0%
Eos (24 h): 1%
Fbg (24 h): 322.4 mg/dL
Hb (24 h): 13.5 g/dL
Ht (24 h): 39.2%
Lym (24 h): 77.8%
MCH (24 h): 21.9 pg
MCHC (24 h): 34.5%
MCV (24 h): 63.4 fL
Mono (24 h): 2.2%
Neu (24 h): 18.4%
PT (24 h): 16 s
Plat (24 h): 135.6 x10_4/uL
RBC (24 h): 618.4 x10_4/ul
Ret (24 h): 8.2%
WBC (24 h): 63.3 x10_2/uL
KIDNEY_L (24 h): 0.9 g
KIDNEY_R (24 h): 0.9 g
KIDNEY_TOTAL (24 h): 1.8 g
LIVER (24 h): 9.7 g
A/G (24 h): 1.3
ALP (24 h): 1726.6 IU/L
ALT (24 h): 48.8 IU/L
AST (24 h): 75.4 IU/L
BUN (24 h): 14.6 mg/dL
CRE (24 h): 0.1 mg/dL
Ca (24 h): 11.1 mg/dL
Cl (24 h): 106.8 meq/L
DBIL (24 h): 0 mg/dL
GLC (24 h): 189 mg/dL
IP (24 h): 7.2 mg/dL
K (24 h): 4.1 meq/L
LDH (24 h): 318.6 IU/L
Na (24 h): 143.4 meq/L
PL (24 h): 148.2 mg/dL
RALB (24 h): 3.2 g/dL
TBIL (24 h): 0.004 mg/dL
TC (24 h): 76.4 mg/dL
TG (24 h): 120 mg/dL
TP (24 h): 5.7 g/dL
gamma-GTP (24 h): 1.2 IU/L
